Legend:
[1] = Metabolic stability in rat liver microsomes assessed as half life measured up to 60 mins in presence of NADPH by LC-MS/MS analysis; assay type: ADME, Microsome
[2] = molecular target: Histone-lysine N-methyltransferase EZH2 (Homo sapiens, UniProt Q15910); assay: Inhibition of EZH2 (unknown origin) using peptide substrate preincubated for 10 mins followed by substrate addition for 4 hrs by HTRF assay
[3] = Metabolic stability in human liver microsomes assessed as half life incubated for 10 mins measured up to 60 mins in presence of NADPH by LC-MS/MS analysis; assay type: ADME, Microsome
A-375 [4] = assay: Induction of apoptosis in human A-375 cells assessed as total apoptotic cells at 2 uM incubated for 48 hrs by Annexin-V FITC/PI staining based flow cytometry analysis relative to control; assay type: functional
[5] = Plasma protein binding in mouse by LC-MS/MS analysis; assay type: ADME, cell-free; details: read-out: PPB (converted)
[6] = Metabolic stability in mouse liver microsomes assessed as clearance measured up to 60 mins in presence of NADPH by LC-MS/MS analysis; assay type: ADME, Microsome; details: 1 h
[7] = Metabolic stability in mouse liver microsomes assessed as half life measured up to 60 mins in presence of NADPH by LC-MS/MS analysis; assay type: ADME, Microsome
[8] = AUC (0 to infinity) in Sprague-Dawley rat at 10 mg/kg, po measured for 0.25 to 24 hrs by LC-MS/MS analysis; assay type: ADME, organism-based; set-up: dose 10 mg/kg, time upper 24 hrs, time lower 0.25 hrs, route po; details: in vivo
[9] = Toxicity in BALB/c mouse xenografted with human A375 cells assessed as change in body weight at 75 mg/kg, po qd for 19 days and measured every 3 days; assay type: organism-based, A-375; details: in vivo, 456 h, time 19 day
[10] = Metabolic stability in rat liver microsomes assessed as clearance measured up to 60 mins in presence of NADPH by LC-MS/MS analysis; assay type: ADME, Microsome; details: 1 h
A-375 [11] = assay: Induction of apoptosis in human A-375 cells assessed as total apoptotic cells at 0.5 uM incubated for 48 hrs by Annexin-V FITC/PI staining based flow cytometry analysis relative to control; assay type: functional
[12] = Volume of distribution at steady state in Sprague-Dawley rat at 3 mg/kg, iv measured for 0.25 to 24 hrs by LC-MS/MS analysis; assay type: ADME, organism-based; details: in vivo, time 0.25-24 hrs, read-out: Vdss
A-375 [13] = assay: Induction of apoptosis in human A-375 cells assessed as total apoptotic cells at 1 uM incubated for 48 hrs by Annexin-V FITC/PI staining based flow cytometry analysis relative to control; assay type: functional
[14] = Oral bioavailability in Sprague-Dawley rat at 10 mg/kg, measured for 0.25 to 24 hrs by LC-MS/MS analysis; assay type: ADME, organism-based; details: in vivo, time 0.25-24 hrs
[15] = molecular target: T1, Protein arginine N-methyltransferase 5 (Homo sapiens, UniProt O14744); assay: Displacement of [3H]-SAM from PRMT5 (unknown origin) using peptide substrate preincubated for 15 mins followed by substrate addition for 60 mins by radioactive biochemical assay
T1 sequence (O14744 whole entry): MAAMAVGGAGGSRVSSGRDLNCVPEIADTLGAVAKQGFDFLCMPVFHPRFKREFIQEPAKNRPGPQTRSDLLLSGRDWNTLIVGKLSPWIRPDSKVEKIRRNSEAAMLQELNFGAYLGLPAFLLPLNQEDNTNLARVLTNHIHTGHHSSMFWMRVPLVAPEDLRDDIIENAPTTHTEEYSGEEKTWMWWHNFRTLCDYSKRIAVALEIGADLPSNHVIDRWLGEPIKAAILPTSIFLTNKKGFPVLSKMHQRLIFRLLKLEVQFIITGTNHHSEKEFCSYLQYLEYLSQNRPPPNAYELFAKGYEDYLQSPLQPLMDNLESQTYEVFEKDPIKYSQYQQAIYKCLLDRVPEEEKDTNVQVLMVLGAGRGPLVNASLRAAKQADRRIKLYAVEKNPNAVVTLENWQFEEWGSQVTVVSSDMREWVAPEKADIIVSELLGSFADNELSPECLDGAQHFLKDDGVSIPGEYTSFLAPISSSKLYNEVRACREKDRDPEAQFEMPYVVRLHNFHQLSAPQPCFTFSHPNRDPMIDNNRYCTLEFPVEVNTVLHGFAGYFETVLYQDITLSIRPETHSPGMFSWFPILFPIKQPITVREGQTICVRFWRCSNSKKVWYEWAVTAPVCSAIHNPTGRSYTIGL

[16] = Cmax in Sprague-Dawley rat at 10 mg/kg, po measured for 0.25 to 24 hrs by LC-MS/MS analysis; assay type: ADME, organism-based; set-up: time lower 0.25 hrs, dose 10 mg/kg, time upper 24 hrs, route po; details: in vivo
[17] = Clearance in Sprague-Dawley rat at 3 mg/kg, iv measured for 0.25 to 24 hrs by LC-MS/MS analysis; assay type: ADME, organism-based; details: in vivo, time 0.25-24 hrs
[18] = Plasma protein binding in rat by LC-MS/MS analysis; assay type: ADME, cell-free; details: read-out: PPB (converted)
[19] = molecular target: T2, Histone-arginine methyltransferase CARM1 (Homo sapiens, UniProt Q86X55); assay: Inhibition of PRMT4 (unknown origin) using histone H4 (1 to 21 residues) peptide/SAM as substrate incubated for 210 mins in presence of SAM by AlphaLISA assay
T2 sequence (Q86X55 whole entry): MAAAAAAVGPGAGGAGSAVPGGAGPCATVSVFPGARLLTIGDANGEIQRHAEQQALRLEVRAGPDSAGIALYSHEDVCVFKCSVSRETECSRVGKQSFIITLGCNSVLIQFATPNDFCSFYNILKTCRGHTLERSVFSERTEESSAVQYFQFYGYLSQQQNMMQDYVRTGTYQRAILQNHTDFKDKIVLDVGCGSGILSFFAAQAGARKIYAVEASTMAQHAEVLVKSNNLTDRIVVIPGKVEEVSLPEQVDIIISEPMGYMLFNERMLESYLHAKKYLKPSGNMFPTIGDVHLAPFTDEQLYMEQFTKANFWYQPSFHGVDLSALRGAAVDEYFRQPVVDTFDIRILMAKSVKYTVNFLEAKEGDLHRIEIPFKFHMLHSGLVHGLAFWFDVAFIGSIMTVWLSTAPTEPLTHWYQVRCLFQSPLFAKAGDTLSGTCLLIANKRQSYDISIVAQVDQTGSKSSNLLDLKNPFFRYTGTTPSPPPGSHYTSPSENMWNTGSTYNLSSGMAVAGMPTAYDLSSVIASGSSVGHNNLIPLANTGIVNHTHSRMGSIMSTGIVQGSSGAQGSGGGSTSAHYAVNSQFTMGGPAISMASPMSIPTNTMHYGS

[20] = molecular target: Histone-lysine N-methyltransferase 2A (Homo sapiens, UniProt Q03164); assay: Inhibition of MLL1 (unknown origin) using peptide substrate preincubated for 10 mins followed by substrate addition for 4 hrs by HTRF assay
Histone-lysine N-methyltransferase 2A, sequence (Q03164 1-2718 limits assumed): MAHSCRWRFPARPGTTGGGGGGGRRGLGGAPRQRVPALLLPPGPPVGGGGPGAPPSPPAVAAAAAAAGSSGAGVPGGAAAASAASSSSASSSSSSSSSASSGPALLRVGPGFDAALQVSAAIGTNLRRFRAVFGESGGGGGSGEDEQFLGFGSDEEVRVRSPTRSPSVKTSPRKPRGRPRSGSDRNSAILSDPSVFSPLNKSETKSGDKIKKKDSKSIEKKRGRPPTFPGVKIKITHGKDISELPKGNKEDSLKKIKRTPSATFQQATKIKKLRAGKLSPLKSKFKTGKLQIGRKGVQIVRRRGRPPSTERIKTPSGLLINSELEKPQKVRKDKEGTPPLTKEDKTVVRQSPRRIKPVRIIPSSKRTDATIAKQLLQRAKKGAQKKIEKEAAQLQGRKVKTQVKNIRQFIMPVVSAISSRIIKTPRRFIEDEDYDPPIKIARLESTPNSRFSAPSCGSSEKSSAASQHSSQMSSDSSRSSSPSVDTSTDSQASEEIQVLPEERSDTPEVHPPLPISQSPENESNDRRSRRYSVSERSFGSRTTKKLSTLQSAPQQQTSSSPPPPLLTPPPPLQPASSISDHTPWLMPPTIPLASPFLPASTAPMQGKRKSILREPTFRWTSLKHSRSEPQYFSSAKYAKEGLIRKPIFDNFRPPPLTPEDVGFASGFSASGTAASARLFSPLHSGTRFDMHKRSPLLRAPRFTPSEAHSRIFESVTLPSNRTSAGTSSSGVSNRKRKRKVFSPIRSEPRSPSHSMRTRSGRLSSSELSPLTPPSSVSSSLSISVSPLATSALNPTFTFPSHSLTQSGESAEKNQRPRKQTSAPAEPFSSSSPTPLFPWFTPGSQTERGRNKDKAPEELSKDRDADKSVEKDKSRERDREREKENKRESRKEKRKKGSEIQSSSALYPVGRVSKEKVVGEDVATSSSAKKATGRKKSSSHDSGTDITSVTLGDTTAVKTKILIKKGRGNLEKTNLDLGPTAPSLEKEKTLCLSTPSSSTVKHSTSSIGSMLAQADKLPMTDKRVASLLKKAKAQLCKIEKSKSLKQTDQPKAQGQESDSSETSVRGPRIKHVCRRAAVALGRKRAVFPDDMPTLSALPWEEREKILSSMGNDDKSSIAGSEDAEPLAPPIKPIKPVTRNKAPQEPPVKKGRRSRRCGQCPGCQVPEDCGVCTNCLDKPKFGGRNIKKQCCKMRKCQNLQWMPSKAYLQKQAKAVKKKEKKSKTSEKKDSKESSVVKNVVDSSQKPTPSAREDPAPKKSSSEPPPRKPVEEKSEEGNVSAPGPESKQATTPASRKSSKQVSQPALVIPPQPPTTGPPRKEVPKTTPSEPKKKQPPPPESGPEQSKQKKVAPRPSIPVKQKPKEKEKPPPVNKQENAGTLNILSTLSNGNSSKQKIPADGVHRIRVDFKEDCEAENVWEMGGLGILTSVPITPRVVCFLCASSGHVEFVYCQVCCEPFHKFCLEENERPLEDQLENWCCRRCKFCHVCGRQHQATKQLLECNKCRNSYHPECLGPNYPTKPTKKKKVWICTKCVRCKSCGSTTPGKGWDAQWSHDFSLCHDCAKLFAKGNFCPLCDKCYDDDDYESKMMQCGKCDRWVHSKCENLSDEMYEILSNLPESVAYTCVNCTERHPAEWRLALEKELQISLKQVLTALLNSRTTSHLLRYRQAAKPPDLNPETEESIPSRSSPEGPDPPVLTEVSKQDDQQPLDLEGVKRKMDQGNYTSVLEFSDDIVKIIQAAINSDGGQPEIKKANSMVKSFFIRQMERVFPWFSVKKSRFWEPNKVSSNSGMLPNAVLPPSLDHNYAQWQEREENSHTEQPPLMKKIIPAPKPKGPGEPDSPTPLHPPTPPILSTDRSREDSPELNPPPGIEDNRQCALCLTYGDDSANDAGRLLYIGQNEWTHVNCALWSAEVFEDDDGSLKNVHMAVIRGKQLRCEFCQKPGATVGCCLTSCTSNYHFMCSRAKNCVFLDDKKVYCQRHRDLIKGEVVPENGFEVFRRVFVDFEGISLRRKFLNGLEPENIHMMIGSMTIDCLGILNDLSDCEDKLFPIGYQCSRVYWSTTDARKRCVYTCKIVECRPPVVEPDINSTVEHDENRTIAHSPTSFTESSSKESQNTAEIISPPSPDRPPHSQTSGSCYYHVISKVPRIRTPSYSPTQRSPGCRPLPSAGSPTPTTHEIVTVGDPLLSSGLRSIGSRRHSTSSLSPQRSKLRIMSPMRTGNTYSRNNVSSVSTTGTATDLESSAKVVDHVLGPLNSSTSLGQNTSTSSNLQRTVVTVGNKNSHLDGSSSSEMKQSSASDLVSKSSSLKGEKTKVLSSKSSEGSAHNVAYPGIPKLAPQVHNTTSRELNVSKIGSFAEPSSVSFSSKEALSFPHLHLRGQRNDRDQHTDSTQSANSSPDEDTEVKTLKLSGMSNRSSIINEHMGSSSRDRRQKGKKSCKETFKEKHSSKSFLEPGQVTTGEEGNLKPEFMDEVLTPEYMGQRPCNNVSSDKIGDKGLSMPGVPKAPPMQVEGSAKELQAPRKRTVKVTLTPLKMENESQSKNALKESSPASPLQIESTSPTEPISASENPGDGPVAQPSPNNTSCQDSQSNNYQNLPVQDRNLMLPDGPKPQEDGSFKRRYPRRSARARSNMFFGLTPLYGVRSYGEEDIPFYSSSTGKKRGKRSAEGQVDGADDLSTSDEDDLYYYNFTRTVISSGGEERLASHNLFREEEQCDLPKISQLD
Histone-lysine N-methyltransferase 2A, sequence (Q03164 2719-3969 limits assumed): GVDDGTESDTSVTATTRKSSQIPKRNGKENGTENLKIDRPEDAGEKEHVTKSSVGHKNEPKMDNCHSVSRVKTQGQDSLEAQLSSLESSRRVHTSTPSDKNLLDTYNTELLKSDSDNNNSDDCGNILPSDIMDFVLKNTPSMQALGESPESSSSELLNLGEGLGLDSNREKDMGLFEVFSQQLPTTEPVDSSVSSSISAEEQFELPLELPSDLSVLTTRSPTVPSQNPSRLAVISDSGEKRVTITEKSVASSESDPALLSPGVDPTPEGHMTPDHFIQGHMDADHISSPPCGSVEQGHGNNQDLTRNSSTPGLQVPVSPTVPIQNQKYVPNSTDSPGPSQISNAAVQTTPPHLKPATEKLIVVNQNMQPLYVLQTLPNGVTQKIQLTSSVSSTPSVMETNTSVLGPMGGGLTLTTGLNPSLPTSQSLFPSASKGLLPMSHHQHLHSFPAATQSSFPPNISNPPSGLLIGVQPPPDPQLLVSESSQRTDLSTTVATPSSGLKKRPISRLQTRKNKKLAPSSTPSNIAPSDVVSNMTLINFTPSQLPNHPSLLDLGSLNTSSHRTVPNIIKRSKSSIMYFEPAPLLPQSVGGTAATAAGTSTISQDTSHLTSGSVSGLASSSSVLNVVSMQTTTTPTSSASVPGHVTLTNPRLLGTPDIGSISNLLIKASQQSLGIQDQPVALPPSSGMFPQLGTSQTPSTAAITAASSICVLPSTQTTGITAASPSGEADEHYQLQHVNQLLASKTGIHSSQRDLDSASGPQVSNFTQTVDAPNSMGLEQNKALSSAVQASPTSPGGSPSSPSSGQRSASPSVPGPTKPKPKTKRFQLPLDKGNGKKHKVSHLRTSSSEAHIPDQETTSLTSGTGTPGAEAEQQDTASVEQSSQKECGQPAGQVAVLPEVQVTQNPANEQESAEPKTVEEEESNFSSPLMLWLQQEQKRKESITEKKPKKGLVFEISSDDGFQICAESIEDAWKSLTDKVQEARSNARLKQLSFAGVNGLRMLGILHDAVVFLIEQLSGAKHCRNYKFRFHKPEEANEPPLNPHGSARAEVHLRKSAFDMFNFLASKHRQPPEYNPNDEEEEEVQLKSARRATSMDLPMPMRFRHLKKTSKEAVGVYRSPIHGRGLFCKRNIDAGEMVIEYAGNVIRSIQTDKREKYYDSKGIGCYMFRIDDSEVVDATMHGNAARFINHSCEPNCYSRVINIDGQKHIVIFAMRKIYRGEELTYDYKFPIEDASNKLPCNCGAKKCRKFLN

[21] = Half life in Sprague-Dawley rat at 10 mg/kg, po measured for 0.25 to 24 hrs by LC-MS/MS analysis; assay type: ADME, organism-based; details: in vivo, time 0.25-24 hrs
[22] = AUC (0 to infinity) in Sprague-Dawley rat at 3 mg/kg, iv measured for 0.25 to 24 hrs by LC-MS/MS analysis; assay type: ADME, organism-based; set-up: time 0.25-24 hrs, dose 3 mg/kg, route iv; details: in vivo
[23] = Half life in Sprague-Dawley rat at 3 mg/kg, iv measured for 0.25 to 24 hrs by LC-MS/MS analysis; assay type: ADME, organism-based; details: in vivo, time 0.25-24 hrs
[24] = molecular target: Protein arginine N-methyltransferase 1 (Homo sapiens, UniProt Q99873); assay: Inhibition of PRMT1 (unknown origin) using histone H4 (1 to 21 residues) peptide as substrate incubated for 210 mins in presence of SAM by AlphaLISA assay
Protein arginine N-methyltransferase 1, sequence (Q99873 whole entry, the tested form may be a part): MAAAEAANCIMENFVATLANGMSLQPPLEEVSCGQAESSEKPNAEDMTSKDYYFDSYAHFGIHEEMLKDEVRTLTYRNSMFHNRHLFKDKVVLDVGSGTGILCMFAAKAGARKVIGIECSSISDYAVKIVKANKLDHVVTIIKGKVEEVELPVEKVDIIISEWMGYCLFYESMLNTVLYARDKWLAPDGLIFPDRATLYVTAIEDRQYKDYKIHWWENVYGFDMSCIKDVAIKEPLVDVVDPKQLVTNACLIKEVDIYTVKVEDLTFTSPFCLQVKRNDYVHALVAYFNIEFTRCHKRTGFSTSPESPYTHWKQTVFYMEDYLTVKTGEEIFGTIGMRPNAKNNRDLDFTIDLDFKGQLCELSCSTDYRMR

A-375 [25] = assay: Antitumor activity against human A-375 cells xenografted in BALB/c mouse assessed as tumor growth inhibition at 75 mg/kg, po qd for 19 days and measured every 3 days; assay type: functional; details: A-375, 456 h, time 19 day, read-out: TGI
[26] = molecular target: T1, Protein arginine N-methyltransferase 5; assay: Inhibition of PRMT5 (unknown origin) using histone H4 (1 to 21 residues) peptide/SAM as substrate incubated for 210 mins in presence of SAM by AlphaLISA assay

`C[C@H](Oc1ccc(-c2cc3c(C4=CCNCC4)ncnc3[nH]2)cc1)c1ccccc1` showed a half-life [1] of 9.25 min, an IC50 [2] greater than 20 µM and a half-life [3] of 0.697 h. For the same compound, the Activity (A-375 [4]) was 66.39%, the fraction unbound [5] was 0.003 and the CLH [6] was 30.7 mL/min/g. For the same compound, the half-life [7] was 1.14 h, the AUC [8] was 65.3 h/ng/mL and the Activity [9] was “Non-Toxic”. It also gave a CLH [10] of 227 mL/min/g, an Activity (A-375 [11]) of 5.58% and a Vd [12] of 62.5 L/kg. The Activity (A-375 [13]) was 14.14%, the bioavailability [14] was 7.25% and the IC50 [15] was 0.0239 µM. For the same compound, the Cmax [16] was 8.22 ng/mL, the clearance [17] was 310 mL/min/kg and the fraction unbound [18] was 0.014. It also gave an IC50 [19] greater than 20 µM, an IC50 [20] greater than 20 µM and a half-life [21] of 7.51 h. The AUC [22] was 173 h/ng/mL, the half-life [23] was 2.58 h and the IC50 [24] was 3.25 µM. It also gave an inhibition in vivo at 75 mg/kg (A-375 [25]) of 73% and an IC50 [26] of 0.047 µM.

— ChEMBL document CHEMBL5154928, “Structure-Aided Design, Synthesis, and Biological Evaluation of Potent and Selective Non-Nucleoside Inhibitors Targeting Protein Arginine Methyltransferase 5” (J Med Chem, 2022)
